Test results published in paper PMC4535766, “Antiprotozoal Activity Profiling of Approved Drugs: A Starting Point toward Drug Repositioning” (PLoS ONE, 2015).
Where a name gives a salt, the structure may show the parent alone. Read-outs that look alike come from different tables or passages of the source.

Key:
[1] = Cytotoxicity on macrophages infected with L. donovani; format: cell-based, mouse; conditions: mouse
[2] = tested on: T. b. rhodesiense strain STIB 900, trypomastigotes; experiment: In vitro activity against T. b. rhodesiense, serial drug dilution assay; conditions: for IC50: Trypanosoma brucei; for Activity against T. b. rhodesiense (in words): in vitro
Protocol: (§1) Drug stock solutions (10mg/ml) were in DMSO (100%). […] Selectivity index (SI) was calculated as IC50 L6 cells/IC50 parasite.

[3] = tested on: axenic amastigotes of L. donovani, strain MHOM-ET-67/L82; experiment: In vitro activity against L. donovani axenic amastigotes, serial drug dilution assay; format: cell-based, Leishmania donovani
Protocol: as §1

P. falciparum strain K1 = experiment: In vitro activity against P. falciparum, serial drug dilution assay; conditions: for IC50: Plasmodium falciparum; for selectivity ratio: rat
Protocol: as §1

[4] = tested on: L. donovani strain MHOM-ET-67/L82 amastigotes; experiment: in vitro; conditions: mouse, Selectivity index: IC50 Cytotoxicity macrophages/ IC50 L. donovani
Protocol: (§2) After 24 h 1.2 x 10^5 amastigote L. donovani in 100 μl were added. The amastigotes were taken from an axenic culture grown at pH 5.4. Four hours later, the medium containing free amastigote forms was removed and replaced by fresh medium. The next day the medium was replaced by medium with or without a serial drug dilution of seven 3-fold dilution steps covering a range from 30 to 0.04 μg/ml. Parasite growth in the presence of the drug was compared to control wells. After 96 h of incubation, the medium was removed and the slides fixed with methanol for 10 min followed by staining with a 10% Giemsa solution. Infected and non-infected macrophages were counted for the control cultures and those exposed to the serial drug dilutions. The infection rates were determined. The results were expressed as a percentage reduction in parasite burden compared to control wells, and the IC50 was calculated by linear regression analysis. The collection of mouse peritoneal macrophages was done at the Swiss Tropical and Public Health Institute (Basel) according to the rules and regulations for the protection of animal rights ("Tierschutzverordnung") of the Swiss "Bundesamt für Veterinärwesen".

[5] = tested on: intracellular amastigotes of L. donovani strain MHOM-ET-67/L82; experiment: Activity against Leishmania donovani intracellular amastigotes in mouse peritoneal macrophages; conditions: Leishmania donovani, Peritoneal macrophage, in Mus musculus
Protocol: as §2

[6] = tested on: T. cruzi, strain Tulahuen C4, intracellular amastigotes; experiment: microbe, parasite or virus in culture; conditions: for IC50: Trypanosoma cruzi, TULAHUEN; for selectivity ratio: Selectivity index: IC50 Cytotoxicity L6/ IC50 T. cruzi
Protocol: as §1

in vitro = conditions: rat
Protocol: as §1

[7] = macrophages infected with L. donovani, read-out: IC50 Cytotox. mac.inf.
[8] = axenic amastigotes, strain MHOM-ET-67/L82, means of two independent assays, read-out: IC50 L. don. axen.
[9] = Selectivity index: IC50 Cytotoxicity L6/ IC50 P. falciparum
[10] = 96 h, read-out: IC50 L. don. intracell
[11] = Leishmania donovani, axenic amastigotes, strain MHOM-ET-67/L82, means of two independent assays, read-out: IC50 L. don. axen.
[12] = rat, L6 cells versus T. b. rhodesiense STIB 900 trypomastigotes
[13] = L6 cells, IC50 Cytotox. L6, L6 cells, means of two independent assays
[14] = infected macrophages, read-out: Cytotox. mac.inf. IC50
[15] = Leishmania donovani, L. donovani axenic amastigotes, read-out: L. don. axen. IC50
[16] = read-out: L. don. intracell IC50
[17] = mouse peritoneal macrophages infected with L. donovani, macrophages infected with L. donovani, read-out: IC50 Cytotox. mac.inf.

| Structure (SMILES) | IC50 at 96 h [1, 7] | IC50 ([2]; read-out: IC50 T. b. rhod.) | IC50 (P. falciparum strain K1; K1, read-out: IC50 P. falc. K1) | IC50 [5, 10] | IC50 ([6]; read-out: IC50 T. cruzi) | IC50 (in vitro; IC50 Cytotox. L6) | IC50 [3, 11] | IC50 (in vitro; [13]) | also measured |
| --- | --- | --- | --- | --- | --- | --- | --- | --- | --- |
| C[C@H]1[C@H](OC(=O)CCC(=O)O)O[C@@H]2O[C@@]3(C)CC[C@H]4[C@H](C)CC[C@@H]1[C@@]24OO3 [Artesunate] | > 7.8 µM | 16.8 µM | 0.003 µM | > 7.8 µM | 8.97 µM | 0.78 µM |  |  | IC50 ([3]; axenic amastigotes, strain MHOM-ET-67/L82, means of two independent assays, listed as artesunate, read-out: IC50 L. don. axen.): < 3 µM; IC50 [3, 8]: 0.35 µM; selectivity ratio (P. falciparum strain K1; [9]): 260; selectivity ratio at 96 h [4]: > 22 |
| O=C(N/N=C/c1ccc([N+](=O)[O-])o1)c1ccc(O)cc1 [Nifuroxazide] | 36.2 µM | 0.03 µM | 7.82 µM | > 10.9 µM | 0.23 µM | 12.3 µM | < 3 µM |  | selectivity ratio ([2]; rat): 410; IC50 [3, 8]: 2.83 µM; selectivity ratio at 96 h [4]: 13; selectivity ratio ([6]; rat): 54 |
| O=C1CN(/N=C/c2ccc([N+](=O)[O-])o2)C(=O)N1 [Nitrofurantoine] | 125 µM | 0.5 µM |  | > 41.8 µM | 4.35 µM | 90.3 µM | < 3 µM |  | Selectivity index: IC50 Cytotoxicity L6/ IC50 T. b. rhodesiense ([2]; rat): 181; selectivity ratio ([2]; rat, Selectivity index: IC50 Cytotoxicity L6/ IC50 T. b. rhodesiense): 180; IC50 [3, 8]: 2.12 µM; selectivity ratio at 96 h [4]: 59; selectivity ratio ([6]; rat): 21 |
| CN(C)CCCN1c2ccccc2Sc2ccccc21 [Promazine] | > 35.2 µM | 2.16 µM | 0.49 µM | > 35.2 µM | 49.1 µM |  | > 316 µM | 30.1 µM | selectivity ratio [2, 12]: 14; selectivity ratio (P. falciparum strain K1; L6 cells versus P. falciparum K1, Selectivity index: IC50 Cytotoxicity L6/ IC50 P. falciparum): 61 |
| NC(=O)c1cnccn1 [Pyrazinamide] | > 244 µM | > 812 µM | 179 µM | > 244 µM | 565 µM | 458 µM | > 812 µM |  |  |
| CCc1nc(N)nc(N)c1-c1ccc(Cl)cc1 [Pyrimethamine] | > 12.1 µM | 6.75 µM | 9.85 µM | > 12.1 µM | 5.71 µM | 2.51 µM | 278 µM |  |  |
| CO[C@H]1/C=C/O[C@@]2(C)Oc3c(C)c(O)c4c(c3C2=O)C2=NC3(CCN(CC(C)C)CC3)NC2=C(NC(=O)/C(C)=C\C=C\[C@H](C)[C@H](O)[C@@H](C)[C@@H](O)[C@@H](C)[C@H](OC(C)=O)[C@@H]1C)C4=O [Rifabutin] |  |  |  |  |  |  |  |  | IC50 at 96 h [1, 14]: > 35.4 µM; IC50 ([2]; read-out: T. b. rhod. IC50): 12.6 µM; Activity against T. b. rhodesiense (in words) [2]: devoid of antitrypanosomal activity; IC50 [3, 15]: 56.4 µM; IC50 (P. falciparum strain K1; K1, read-out: P. falc. IC50): 1.59 µM; IC50 [5, 16]: > 35.4 µM; IC50 ([6]; read-out: T. cruzi IC50): 27.5 µM; IC50 (in vitro; Cytotox. L6 IC50): 60.9 µM |
| CO[C@H]1/C=C/O[C@@]2(C)Oc3c(C)c(O)c4c(O)c(c(/C=N/N5CCN(C)CC5)c(O)c4c3C2=O)NC(=O)/C(C)=C\C=C\[C@H](C)[C@H](O)[C@@H](C)[C@@H](O)[C@@H](C)[C@H](OC(C)=O)[C@@H]1C [Rifampicin] | > 36.5 µM |  | 0.1 µM | > 36.5 µM |  | 75.2 µM | < 3 µM |  | IC50 at 96 h [1, 14]: > 36.5 µM; IC50 ([2]; read-out: T. b. rhod. IC50): 16.7 µM; Activity against T. b. rhodesiense (in words) [2]: devoid of antitrypanosomal activity; IC50 [3, 8]: 1.53 µM; selectivity ratio at 96 h [4]: > 24; IC50 ([6]; read-out: T. cruzi IC50): > 109 µM |
| CO[C@H]1/C=C/O[C@@]2(C)Oc3c(C)c(O)c4c(O)c(cc(O)c4c3C2=O)NC(=O)/C(C)=C\C=C\[C@H](C)[C@H](O)[C@@H](C)[C@@H](O)[C@@H](C)[C@H](OC(C)=O)[C@@H]1C [Rifamycin SV (Sodium salt), Rifamycin SV] | 41.6 µM | 0.99 µM | 0.55 µM | > 13.9 µM |  | 15.7 µM | < 3 µM |  | selectivity ratio [2, 12]: 16; IC50 [3, 8]: 1.5 µM; selectivity ratio (P. falciparum strain K1; [9]): 29; selectivity ratio at 96 h ([4]; mouse peritoneal macrophages versus L. donovani amastigotes, axenic or intracellular IC50 not specified): 28; IC50 ([6]; read-out: T. cruzi IC50): 50 µM |
| CO[C@H]1/C=C/O[C@@]2(C)Oc3c(C)c(O)c4c(O)c(c5c(nc6cc(C)ccn65)c4c3C2=O)NC(=O)/C(C)=C\C=C\[C@H](C)[C@H](O)[C@@H](C)[C@@H](O)[C@@H](C)[C@H](OC(C)=O)[C@@H]1C [Rifaximin] |  |  | 0.92 µM |  |  | 88 µM |  |  | IC50 at 96 h [1, 14]: > 38.2 µM; IC50 ([2]; read-out: T. b. rhod. IC50): 17.1 µM; Activity against T. b. rhodesiense (in words) [2]: devoid of antitrypanosomal activity; IC50 [3, 15]: 15 µM; selectivity ratio (P. falciparum strain K1; [9]): 96; IC50 [5, 16]: > 38.2 µM; IC50 ([6]; read-out: T. cruzi IC50): 40.2 µM |
| CC(N)C12CC3CC(CC(C3)C1)C2 (stereo not shown) [Rimantadine] |  | 13.8 µM | 0.97 µM | > 167 µM | 321 µM |  | 427 µM | 311 µM | IC50 at 96 h [1, 17]: > 167 µM; selectivity ratio [2, 12]: 23; Activity against P. falciparum (in words) (P. falciparum strain K1; in vitro): selective activities; selectivity ratio (P. falciparum strain K1; [9]): 321 |
| CC(C)(C)NC(=O)[C@@H]1C[C@@H]2CCCC[C@@H]2CN1C[C@@H](O)[C@H](Cc1ccccc1)NC(=O)[C@H](CC(N)=O)NC(=O)c1ccc2ccccc2n1 [Saquinavir] | > 44.7 µM | 12.3 µM | 11.9 µM | > 44.7 µM | 17.1 µM | 18.2 µM | 77.4 µM |  |  |
| Cc1cn([C@H]2C=C[C@@H](CO)O2)c(=O)[nH]c1=O [Stavudine] |  | 120 µM | 186 µM | > 134 µM | 341 µM |  | > 446 µM | 266 µM | IC50 at 96 h [1, 17]: > 134 µM |
| CN1CC(=O)N2[C@H](c3ccc4c(c3)OCO4)c3[nH]c4ccccc4c3C[C@@H]2C1=O [Tadalafil] | > 77 µM | 97.6 µM | > 12.8 µM | > 77 µM | 8.6 µM | 221 µM | 40.1 µM |  | Selectivity index: IC50 Cytotoxicity L6/ IC50 T. cruzi ([6]; rat): 26; selectivity ratio ([6]; rat): > 26 |
| COc1cc(C)c2c(Oc3cccc(C(F)(F)F)c3)c(OC)cc(NC(C)CCCN)c2n1 (stereo not shown) [Tafenoquine] |  | 1.42 µM | 0.27 µM | 2.16 µM | 6.11 µM |  | 17.9 µM | 5.52 µM | IC50 at 96 h [1, 17]: 6.47 µM; selectivity ratio (P. falciparum strain K1; [9]): 20 |
| CN(C/C=C/C#CC(C)(C)C)Cc1cccc2ccccc12 [Terbinafine (Hydrochloride), Terbinafine] |  | 95.2 µM | 7.72 µM | 69.5 µM | 40.9 µM |  | 23 µM | 47 µM | IC50 at 96 h [1, 17]: > 91.5 µM |
| Nc1nc(N)c2nc(-c3ccccc3)c(N)nc2n1 [Triamterene] | > 11.8 µM | 21.7 µM | 17.2 µM | > 11.8 µM | 22.7 µM | 8.53 µM | 307 µM |  |  |
| CN1CCN(CCCN2c3ccccc3Sc3ccc(C(F)(F)F)cc32)CC1 [Trifluoperazine] | 24.5 µM | 1.23 µM | 1.48 µM | > 7.36 µM | 10.1 µM |  | 52.9 µM | 11 µM |  |
| CN(C)CCCN1c2ccccc2Sc2ccc(C(F)(F)F)cc21 [Triflupromazine] |  | 1.42 µM |  |  |  |  |  | 18.5 µM | MCC at 96 h [1, 14]: 28.4 µM; selectivity ratio [2, 12]: 13; IC50 [3, 15]: 79.8 µM; IC50 (P. falciparum strain K1; K1, read-out: P. falc. IC50): 2.72 µM; IC50 [5, 16]: > 8.51 µM; IC50 ([6]; read-out: T. cruzi IC50): 15 µM |
| C[C@@H](c1ncncc1F)[C@](O)(Cn1cncn1)c1ccc(F)cc1F [Voriconazole] | > 85.9 µM | > 286 µM | > 143 µM | > 85.9 µM | 11.2 µM | 195 µM | > 286 µM |  |  |
| Cc1cn([C@H]2C[C@H](N=[N+]=[N-])[C@@H](CO)O2)c(=O)[nH]c1=O [Zidovudine] | > 112 µM | 140 µM | 175 µM | > 112 µM | 156 µM | 207 µM | > 374 µM |  |  |
